Test results published in patent publication US6579881B2 (Eisai Co., Ltd., priority 1997, dated 2003).
Counter-ions that a name gives are not always drawn. Like-named read-outs stand apart in the source and are kept apart here.

How the values were obtained:
serotonin 2 receptor = serotonin 2 receptor (Rattus norvegicus, UniProt P14842); test: Binding test on [3H] ketanserin (serotonin 2 receptor); conditions: [3H] ketanserin 0.3 nM, receptor fraction of rat cerebral cortex; read-out: 5HT2
α1 adrenalin receptor = test: Binding test on [3H] prazosin (α1 adrenalin receptor); parameters: species or system rat; conditions: [3H] prazosin about 0.2 nM, receptor fraction of rat cerebral cortex
[1] = tested on: Straub's tail reaction (hyper-muscle tone in the tail); test: Morphine induced Straub's tail phenomenon in mice; type: in vivo; conditions: Mus musculus, male ddY mice, 15 min before morphine hydrochloride 12.5 mg/kg s.c., statistically significant (p<0.05)
serotonin 1A receptor = molecular target: T1, serotonin 1A receptor (Rattus norvegicus, UniProt P19327); test: Binding test on [3H] 8-hydroxy-dipropylaminotetralin (serotonin 1A receptor); conditions: [3H] 8-OH-DPAT 0.5 nM, receptor fraction of rat hippocampus; read-out: 5HT1a
T1 construct: To the receptor fraction of the hippocampus were added a test compound and 0.5 nM of [^3H]; 8-hydroxy-dipropylaminotetralin; from tissue; host or cells: SD rat hippocampus, membrane (receptor) fraction
T1 sequence (P19327 1-422): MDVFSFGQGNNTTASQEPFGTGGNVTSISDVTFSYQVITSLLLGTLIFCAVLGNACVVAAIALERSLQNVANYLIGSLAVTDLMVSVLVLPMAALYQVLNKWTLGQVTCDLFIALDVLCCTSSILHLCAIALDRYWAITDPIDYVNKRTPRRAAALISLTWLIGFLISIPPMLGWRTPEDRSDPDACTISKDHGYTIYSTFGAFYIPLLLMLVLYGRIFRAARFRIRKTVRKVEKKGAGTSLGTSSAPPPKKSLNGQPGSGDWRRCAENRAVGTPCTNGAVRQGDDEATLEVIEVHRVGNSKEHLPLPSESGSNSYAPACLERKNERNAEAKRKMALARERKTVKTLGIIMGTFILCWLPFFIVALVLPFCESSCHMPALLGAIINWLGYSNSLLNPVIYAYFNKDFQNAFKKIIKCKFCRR

[2] = po, p.o., read-out: minimal effective dose p.o.
[3] = ip, i.p., read-out: minimal effective dose i.p.

Sequence of serotonin 2 receptor (P14842 whole entry): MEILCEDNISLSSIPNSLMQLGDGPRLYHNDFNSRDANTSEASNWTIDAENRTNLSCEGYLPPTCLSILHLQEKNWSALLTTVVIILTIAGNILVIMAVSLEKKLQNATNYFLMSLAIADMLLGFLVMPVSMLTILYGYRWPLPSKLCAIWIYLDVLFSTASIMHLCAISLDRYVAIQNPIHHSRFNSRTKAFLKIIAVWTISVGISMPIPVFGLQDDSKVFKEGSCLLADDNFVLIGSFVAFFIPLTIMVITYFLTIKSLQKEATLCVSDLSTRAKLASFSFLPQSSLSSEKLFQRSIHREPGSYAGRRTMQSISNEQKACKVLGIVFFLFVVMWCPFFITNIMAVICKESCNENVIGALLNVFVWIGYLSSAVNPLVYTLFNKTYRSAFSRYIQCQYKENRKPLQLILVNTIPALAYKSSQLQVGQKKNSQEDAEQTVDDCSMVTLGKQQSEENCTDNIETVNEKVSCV

CC(C)NC(=O)Cc1ccc2c(c1)N(C1CCN(CCc3ccc(F)cc3)CC1)CC2 [Example 151, 1-[1-(4-fluorophenethyl)piperidin-4-yl]-6-(isopropylcarbamoylmethyl)indoline]
Ki (serotonin 2 receptor): 0.57 nM
Ki (α1 adrenalin receptor): 292 nM
minimal effective dose [1, 2]: 3 mg/kg
Ki (serotonin 1A receptor): 8.84 nM

NC(=O)c1ccc2c(c1)N(C1CCN(CCc3ccc(F)cc3)CC1)CC2 [Example 125, 1-[1-(4-fluorophenethyl)piperidin-4-yl]-6-carbamoylindoline]
Ki (serotonin 2 receptor): 4.76 nM
Ki (α1 adrenalin receptor): 46.4 nM
minimal effective dose [1, 3]: 1 mg/kg
minimal effective dose [1, 2]: 3 mg/kg
Ki (serotonin 1A receptor): 0.1 nM

Fc1ccc(CCN2CCC(C3CCc4ccccc43)CC2)cc1 (stereo not drawn) [Example 248, 1-[1-(4-fluorophenethyl)piperidin-4-yl]indan]
Ki (serotonin 2 receptor): 6.8 nM
Ki (α1 adrenalin receptor): 75.3 nM
minimal effective dose [1, 3]: ≤ 10 mg/kg
minimal effective dose [1, 2]: 30 mg/kg
Ki (serotonin 1A receptor): 2.9 nM

CC(=O)NCCc1ccc2c(c1)N(C1CCN(CCc3ccc(F)cc3)CC1)CC2 [Example 166, 1-[1-(4-fluorophenethyl)piperidin-4-yl]-6-acetamidoethylindoline]
Ki (serotonin 2 receptor): 17.1 nM
Ki (α1 adrenalin receptor): 194 nM
minimal effective dose [1, 3]: 3 mg/kg
minimal effective dose [1, 2]: 3 mg/kg
Ki (serotonin 1A receptor): 0.79 nM

CN1CCC(=C2c3ccccc3C=Cc3ccccc32)CC1 [Cyproheptadine, cyproheptadine hydrochloride, reference compound]
minimal effective dose [1, 3]: 3 mg/kg

CC(=O)NCc1ccc(CCN2CCC(N3CCc4ccccc43)CC2)cc1 [Example 36, 1-[1-(4-acetamidomethylphenethyl)piperidin-4-yl]indoline]
Ki (serotonin 2 receptor): 14.9 nM
Ki (α1 adrenalin receptor): 39 nM
minimal effective dose [1, 3]: 1 mg/kg
minimal effective dose [1, 2]: ≤ 3 mg/kg
Ki (serotonin 1A receptor): 4.5 nM

CC(c1ccc2c(c1)N(C1CCN(CCc3ccc(F)cc3)CC1)CC2)c1ccccn1 (stereo not drawn) [Example 182, 1-[1-(4-fluorophenethyl)piperidin-4-yl]-6-[1-(2-pyridyl)ethyl]indoline]
Ki (serotonin 2 receptor): 2.91 nM
Ki (α1 adrenalin receptor): 70.1 nM
minimal effective dose [1, 2]: 10 mg/kg
Ki (serotonin 1A receptor): 4.28 nM

COc1cccc(C(O)c2ccc3c(c2)N(C2CCN(CCc4ccc(F)cc4)CC2)CC3)n1 (stereo not drawn) [Example 186, 1-[1-(4-fluorophenethyl)piperidin-4-yl]-6-[1-hydroxy-1-(2-methoxypyridin-6-yl)methyl]indoline]
Ki (serotonin 2 receptor): 3.32 nM
minimal effective dose [1, 2]: 10 mg/kg
Ki (serotonin 1A receptor): 14.6 nM

CC(=O)N1CCC(Cc2ccc3c(c2)N(C2CCN(CCc4ccc(F)cc4)CC2)CC3)CC1 [Example 168, 1-[1-(4-fluorophenethyl)piperidin-4-yl]-6-[(1-acetylpiperidin-4-yl)methyl]indoline]
Ki (serotonin 2 receptor): 4.06 nM
Ki (α1 adrenalin receptor): 72.6 nM
minimal effective dose [1, 2]: 10 mg/kg
Ki (serotonin 1A receptor): 3.84 nM

COc1ccc(Cc2ccc3c(c2)N(C2CCN(CCc4ccc(F)cc4)CC2)CC3)cn1 [Example 189, 1-[1-(4-fluorophenethyl)piperidin-4-yl]-6-[1-(2-methoxypyridin-5-yl)methyl]indoline]
Ki (serotonin 2 receptor): 2.02 nM
Ki (α1 adrenalin receptor): 442 nM
minimal effective dose [1, 2]: 10 mg/kg
Ki (serotonin 1A receptor): 7.72 nM

COc1ncc(CCN2CCC(N3CCc4ccccc43)CC2)s1 [Example 65, 1-[1-(2-methoxy-5-thiazolyl)ethylpiperidin-4-yl]indoline]
Ki (serotonin 2 receptor): 4.8 nM
minimal effective dose [1, 2]: 30 mg/kg
Ki (serotonin 1A receptor): 8.8 nM

Fc1ccc(CCN2CCC(N3CCc4ccccc43)CC2)cc1 [Example 9, 1-[1-(4-fluorophenethyl)piperidin-4-yl]indoline]
Ki (serotonin 2 receptor): 11.6 nM
Ki (α1 adrenalin receptor): 76.5 nM
minimal effective dose [1, 3]: 10 mg/kg
Ki (serotonin 1A receptor): 3 nM

CNCc1ccc2c(c1)N(C1CCN(CCc3ccc(F)cc3)CC1)CC2 [Example 162, 1-[1-(4-fluorophenethyl)piperidin-4-yl]-6-N-methylaminomethylindoline]
Ki (serotonin 2 receptor): 27.1 nM
Ki (α1 adrenalin receptor): 223 nM
minimal effective dose [1, 3]: 1 mg/kg
minimal effective dose [1, 2]: > 10 mg/kg
Ki (serotonin 1A receptor): 0.98 nM

OC(c1ccc2c(c1)N(C1CCN(CCc3ccc(F)cc3)CC1)CC2)c1ncccn1 (stereo not drawn) [Example 197, 1-[1-(4-fluorophenethyl)piperidin-4-yl]-6-[1-hydroxy-1-(pyrimidin-2-yl)methyl]indoline]
Ki (serotonin 2 receptor): 1.27 nM
Ki (α1 adrenalin receptor): 68.6 nM
minimal effective dose [1, 2]: 10 mg/kg
Ki (serotonin 1A receptor): 10.4 nM

COc1ccc2c(c1)N(C1CCN(CCc3ccc(F)cc3)CC1)CC2 [Example 106, 1-[1-(4-fluorophenethyl)piperidin-4-yl]-6-methoxyindoline]
Ki (serotonin 2 receptor): 6.4 nM
Ki (α1 adrenalin receptor): 71.3 nM
minimal effective dose [1, 3]: 10 mg/kg
minimal effective dose [1, 2]: > 30 mg/kg
Ki (serotonin 1A receptor): 0.7 nM

COc1ncccc1C(O)c1ccc2c(c1)N(C1CCN(CCc3ccc(F)cc3)CC1)CC2 (stereo not drawn) [Example 184, 1-[1-(4-fluorophenethyl)piperidin-4-yl]-6-[1-hydroxy-1-(2-methoxypyridin-3-yl)methyl]indoline]
Ki (serotonin 2 receptor): 3.06 nM
Ki (α1 adrenalin receptor): 188 nM
minimal effective dose [1, 2]: 3 mg/kg
Ki (serotonin 1A receptor): 15.1 nM

NCC(CC(=O)O)c1ccc(Cl)cc1 (stereo not drawn) [Baclofen, baclofen, reference compound]
minimal effective dose [1, 3]: 3 mg/kg
minimal effective dose [1, 2]: 10 mg/kg

NC(=O)Cc1ccc2c(c1)N(C1CCN(CCc3ccc(F)cc3)CC1)CC2 [Example 147, 1-[1-(4-fluorophenethyl)piperidin-4-yl]-6-carbamoylmethylindoline]
Ki (serotonin 2 receptor): 0.77 nM
Ki (α1 adrenalin receptor): 157 nM
minimal effective dose [1, 3]: ≤ 0.3 mg/kg
minimal effective dose [1, 2]: ≤ 3 mg/kg
Ki (serotonin 1A receptor): 1.31 nM

O=C1NCCN1Cc1ccc2c(c1)N(C1CCN(CCc3ccc(F)cc3)CC1)CC2 [Example 206, 1-[1-(4-fluorophenethyl)piperidin-4-yl]-6-(2-imidazolidonyl)methylindoline]
Ki (serotonin 2 receptor): 2.17 nM
minimal effective dose [1, 2]: 10 mg/kg
Ki (serotonin 1A receptor): 1.49 nM

O/N=C/c1ccc(CCN2CCC(N3CCc4ccccc43)CC2)cc1 [Example 34, 1-[1-(4-hydroxyiminomethylphenethyl)piperidin-4-yl]indoline]
Ki (serotonin 2 receptor): 9.1 nM
minimal effective dose [1, 3]: ≤ 10 mg/kg
minimal effective dose [1, 2]: 30 mg/kg
Ki (serotonin 1A receptor): 1.9 nM

CC(O)c1ccc2c(c1)N(C1CCN(CCc3ccc(F)cc3)CC1)CC2 (stereo not drawn) [Example 137, 1-[1-(4-fluorophenethyl)piperidin-4-yl]-6-(1-hydroxyethyl)indoline]
Ki (serotonin 2 receptor): 6.68 nM
Ki (α1 adrenalin receptor): 126 nM
minimal effective dose [1, 2]: 1 mg/kg
Ki (serotonin 1A receptor): 0.65 nM

CCNC(=O)Cc1ccc2c(c1)N(C1CCN(CCc3ccc(F)cc3)CC1)CC2 [Example 149, 1-[1-(4-fluorophenethyl)piperidin-4-yl]-6-(ethylcarbamoylmethyl)indoline]
Ki (serotonin 2 receptor): 0.5 nM
Ki (α1 adrenalin receptor): 304 nM
minimal effective dose [1, 3]: 1 mg/kg
minimal effective dose [1, 2]: ≤ 3 mg/kg
Ki (serotonin 1A receptor): 7.44 nM

CN(C)CCC=C1c2ccccc2C=Cc2ccccc21 [Cyclobenzaprine, cyclobenzaprine hydrochloride, reference compound]
minimal effective dose [1, 3]: 10 mg/kg

Clc1ccc2nsnc2c1NC1=NCCN1 [Tizanidine, tizanidine hydrochloride, reference compound]
minimal effective dose [1, 3]: 1 mg/kg
minimal effective dose [1, 2]: 1 mg/kg

O=C(Cc1ccc2ccn(C3CCN(CCc4ccc(F)cc4)CC3)c2c1)NC(CO)CO.O=C(O)C(=O)O [Example 304, 1-[1-(4-fluorophenethyl)piperidin-4-yl]-6-(1,3-dihydroxypropan-2-yl)carbamoylmethylindole Oxalate]
Ki (serotonin 2 receptor): 6.26 nM
Ki (α1 adrenalin receptor): 141 nM
melting point: 213.1 to 214.5 °C (dec.)
Ki (serotonin 1A receptor): 8.37 nM

NC(=O)Cc1ccc2ccn(C3CCN(CCc4ccc(F)cc4)CC3)c2c1 [Example 305, 1-[1-(4-fluorophenethyl)piperidin-4-yl]-6-carbamoylmethylindole]
Ki (serotonin 2 receptor): 3.29 nM
Ki (α1 adrenalin receptor): 35.9 nM
melting point: 159.1 to 160.8 °C
Ki (serotonin 1A receptor): 0.06 nM

CNC(=O)Cc1ccc2ccn(C3CCN(CCc4ccccc4F)CC3)c2c1 [Example 342, 1-[1-(2-fluorophenethyl)piperidin-4-yl]-6-methylcarbamoylmethylindole]
Ki (serotonin 2 receptor): 38.1 nM
Ki (α1 adrenalin receptor): 25 nM
melting point: 136.5 to 137.4 °C
Ki (serotonin 1A receptor): 0.65 nM

O=C(NCc1ccc2ccn(C3CCN(CCc4ccc(F)cc4)CC3)c2c1)C1CC1 [Example 363, 1-[1-(4-fluorophenethyl)piperidin-4-yl]-6-cyclopropanecarboxamidomethylindole]
Ki (serotonin 2 receptor): 3.39 nM
Ki (α1 adrenalin receptor): 106 nM
melting point: 116 to 117 °C
Ki (serotonin 1A receptor): 1.5 nM

CNC(=O)NCc1ccc2ccn(C3CCN(CCc4ccc(F)cc4)CC3)c2c1 [Example 397, 1-[1-(4-fluorophenethyl)piperidin-4-yl]-6-(3-methylureido)methylindole]
Ki (serotonin 2 receptor): 2.27 nM
Ki (α1 adrenalin receptor): 27.1 nM
melting point: 192 °C (dec.)
Ki (serotonin 1A receptor): 1.28 nM
